IC50 data for 8 compounds are collected here from patent US9255096B1, “Substituted 1,2,3,4-tetrahydrobenzo[C][2,7] naphthyridines and derivatives thereof as kinase inhibitors” (Allergan, Inc., priority 2014, dated 2016).

Assay [1] addresses T1, PDGFRβ (Homo sapiens (Human), UniProt P09619). As to the kind of experiment: PDGFRβ Kinase Assay (enzyme). It counts as biochemical. The note with it: purified cytoplasmic domain PDGFR-b protein, 36 μM ATP. The method, then:
Biochemical PDGFRβ kinase assays were performed in 96 well microtiter plates that were coated overnight with 75 μg of poly-Glu-Tyr (4:1) in 10 mM Phosphate Buffered Saline (PBS), pH 7.4. The coated plates were washed with 2 mls per well PBS+0.05% Tween-20 (PBS-T), blocked by incubation with PBS containing 1% BSA, then washed with 2 mls per well PBS-T prior to starting the reaction. Reactions were carried out in 100 μL reaction volumes containing 36 μM ATP in kinase buffer (50 mM Hepes buffer pH 7.4, 20 mM MgCl2, 0.1 mM MnCl2 and 0.2 mM Na3VO4). Test compounds were reconstituted in 100% DMSO and added to the reaction to give a final DMSO concentration of 5%. Reactions were initiated by the addition 20 ul per well of kinase buffer containing 200-300 ng purified cytoplasmic domain PDGFR-b protein (Millipore). Following a 60 minute incubation at 30° C., the reactions were washed 2 mls per well PBS-T. 100 μl of a monoclonal anti-phosphotyrosine antibody-peroxidase conjugate diluted 1:10,000 in PBS-T was added to the wells for 30 minutes. Following a 2 mls per well wash with PBS-Tween-20, 100 μl of 0-Phenylenediamine Dihydrochloride in phosphate-citrate buffer, containing urea hydrogen peroxide, was added to the wells for 7-10 minutes as a colorimetric substrate for the peroxidase. The reaction was terminated by the addition of 100 μl of 2.5N H2SO4 to each well and read using a microplate ELISA reader set at 492 nm. IC50 values for compound inhibition were calculated directly from graphs of optical density (arbitrary units) versus compound concentration following subtraction of blank values.
Target sequence in this assay (P09619 554-1106): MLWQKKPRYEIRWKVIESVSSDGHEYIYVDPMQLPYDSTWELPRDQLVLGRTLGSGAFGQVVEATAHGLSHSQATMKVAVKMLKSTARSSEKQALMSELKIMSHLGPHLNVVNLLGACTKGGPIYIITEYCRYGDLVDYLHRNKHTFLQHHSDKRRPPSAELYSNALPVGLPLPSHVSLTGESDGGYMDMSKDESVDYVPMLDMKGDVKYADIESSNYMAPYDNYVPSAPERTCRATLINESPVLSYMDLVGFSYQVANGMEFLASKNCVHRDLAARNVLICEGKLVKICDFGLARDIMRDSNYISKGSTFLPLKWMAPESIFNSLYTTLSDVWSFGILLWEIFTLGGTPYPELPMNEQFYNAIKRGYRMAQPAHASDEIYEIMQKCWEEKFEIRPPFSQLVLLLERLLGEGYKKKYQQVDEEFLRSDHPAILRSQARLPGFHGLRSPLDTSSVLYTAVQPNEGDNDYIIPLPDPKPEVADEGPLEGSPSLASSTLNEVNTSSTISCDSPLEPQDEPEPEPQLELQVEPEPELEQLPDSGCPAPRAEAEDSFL

Assay [2] addresses T2, VEGFR2 (Homo sapiens (Human), UniProt P35968). As to the kind of experiment: VEGFR2 Kinase Assay (enzyme). In kind it is biochemical. The note with it: purified cytoplasmic domain KDR protein, 2.7 μM ATP. The procedure: VEGFR2 Kinase Assay: Biochemical KDR kinase assays were performed in 96 well microtiter plates that were coated overnight with 75 μg/well of poly-Glu-[…]:1) in 10 mM Phosphate Buffered Saline (PBS), pH 7.4. The coated plates were washed with 2 mls per well PBS+0.05% Tween-20 (PBS-T), blocked by incubation with PBS containing 1% BSA, then washed with 2 mls per well PBS-T prior to starting the reaction. Reactions were carried out in 100 μL reaction volumes containing 2.7 μM ATP in kinase buffer (50 mM Hepes buffer pH 7.4, 20 mM MgCl2, 0.1 mM MnCl2 and 0.2 mM Na3VO4). Test compounds were reconstituted in 100% DMSO and added to the reaction to give a final DMSO concentration of 5%. Reactions were initiated by the addition 20 ul per well of kinase buffer containing 200-300 ng purified cytoplasmic domain KDR protein (BPS Bioscience, San Diego, Calif.). Following a 15 minute incubation at 30° C., the reactions were washed 2 mls per well PBS-T. 100 μl of a monoclonal anti-phosphotyrosine antibody-peroxidase conjugate diluted 1:10,000 in PBS-T was added to the wells for 30 minutes. Following a 2 mls per well wash with PBS-Tween-20, 100 μl of 0-Phenylenediamine Dihydrochloride in phosphate-citrate buffer, containing urea hydrogen peroxide, was added to the wells for 7-10 minutes as a colorimetric substrate for the peroxidase. The reaction was terminated by the addition of 100 μl of 2.5N H2SO4 to each well and read using a microplate ELISA reader set at 492 nm. IC50 values for compound inhibition were calculated directly from graphs of optical density (arbitrary units) versus compound concentration following subtraction of blank values.
Target sequence in this assay (P35968 786-1356): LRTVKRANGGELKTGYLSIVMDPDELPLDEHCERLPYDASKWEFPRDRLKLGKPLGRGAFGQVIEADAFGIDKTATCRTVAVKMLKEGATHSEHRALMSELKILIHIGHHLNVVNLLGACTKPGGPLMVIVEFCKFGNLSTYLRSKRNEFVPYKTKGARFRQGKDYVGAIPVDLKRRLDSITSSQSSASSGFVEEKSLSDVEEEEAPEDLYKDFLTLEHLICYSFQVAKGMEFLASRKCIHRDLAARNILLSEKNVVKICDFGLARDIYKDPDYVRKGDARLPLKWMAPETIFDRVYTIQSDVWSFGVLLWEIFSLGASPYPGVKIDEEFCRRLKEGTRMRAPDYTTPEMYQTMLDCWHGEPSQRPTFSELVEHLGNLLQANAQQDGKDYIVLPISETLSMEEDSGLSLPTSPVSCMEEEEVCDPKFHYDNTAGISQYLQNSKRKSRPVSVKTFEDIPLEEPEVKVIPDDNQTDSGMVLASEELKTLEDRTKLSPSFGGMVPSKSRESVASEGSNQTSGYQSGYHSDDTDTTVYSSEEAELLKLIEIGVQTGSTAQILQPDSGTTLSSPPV

The target of assay [3] is T2, VEGFR2. As to the kind of experiment: VEGFR2 Cellular Assay. In kind it is cell-based.
Target sequence in this assay (P35968 20-1356, species assumed): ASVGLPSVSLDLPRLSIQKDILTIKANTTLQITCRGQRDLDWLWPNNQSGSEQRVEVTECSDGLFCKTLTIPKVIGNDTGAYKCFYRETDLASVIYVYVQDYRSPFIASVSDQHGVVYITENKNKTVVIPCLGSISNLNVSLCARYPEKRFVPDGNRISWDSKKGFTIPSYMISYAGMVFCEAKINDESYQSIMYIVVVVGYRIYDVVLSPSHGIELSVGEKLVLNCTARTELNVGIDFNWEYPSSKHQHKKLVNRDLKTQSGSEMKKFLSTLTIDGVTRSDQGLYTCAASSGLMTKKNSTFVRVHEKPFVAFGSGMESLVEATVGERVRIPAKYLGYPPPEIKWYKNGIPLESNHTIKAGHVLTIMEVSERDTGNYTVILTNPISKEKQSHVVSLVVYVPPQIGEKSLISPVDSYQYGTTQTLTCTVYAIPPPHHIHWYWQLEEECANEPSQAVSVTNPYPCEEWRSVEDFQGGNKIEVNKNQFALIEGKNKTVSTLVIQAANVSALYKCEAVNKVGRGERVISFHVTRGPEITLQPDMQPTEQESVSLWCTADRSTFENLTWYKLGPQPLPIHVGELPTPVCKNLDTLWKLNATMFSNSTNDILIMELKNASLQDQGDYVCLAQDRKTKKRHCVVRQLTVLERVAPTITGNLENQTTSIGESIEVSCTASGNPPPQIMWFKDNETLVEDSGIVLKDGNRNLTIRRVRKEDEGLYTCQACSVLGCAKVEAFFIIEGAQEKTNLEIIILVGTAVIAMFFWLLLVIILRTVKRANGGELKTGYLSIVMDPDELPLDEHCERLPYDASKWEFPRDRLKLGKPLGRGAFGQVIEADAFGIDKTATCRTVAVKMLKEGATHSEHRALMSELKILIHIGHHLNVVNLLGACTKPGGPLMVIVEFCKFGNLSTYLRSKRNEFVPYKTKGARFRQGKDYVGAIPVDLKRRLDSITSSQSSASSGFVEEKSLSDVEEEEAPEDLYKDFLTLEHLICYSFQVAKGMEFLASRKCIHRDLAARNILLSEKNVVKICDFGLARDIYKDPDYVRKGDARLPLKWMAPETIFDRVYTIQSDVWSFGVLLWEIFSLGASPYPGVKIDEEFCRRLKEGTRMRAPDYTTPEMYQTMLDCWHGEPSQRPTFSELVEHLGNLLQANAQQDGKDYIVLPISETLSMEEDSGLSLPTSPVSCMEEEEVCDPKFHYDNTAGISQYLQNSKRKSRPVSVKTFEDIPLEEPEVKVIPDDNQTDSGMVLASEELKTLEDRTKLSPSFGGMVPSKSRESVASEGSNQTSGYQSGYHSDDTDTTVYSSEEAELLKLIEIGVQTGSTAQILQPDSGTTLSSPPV
In assay [4] the target is T1, PDGFRβ. As to the kind of experiment: PDGFRβ Cellular Assay. It counts as cell-based.
Target sequence in this assay (P09619 33-1106, species assumed): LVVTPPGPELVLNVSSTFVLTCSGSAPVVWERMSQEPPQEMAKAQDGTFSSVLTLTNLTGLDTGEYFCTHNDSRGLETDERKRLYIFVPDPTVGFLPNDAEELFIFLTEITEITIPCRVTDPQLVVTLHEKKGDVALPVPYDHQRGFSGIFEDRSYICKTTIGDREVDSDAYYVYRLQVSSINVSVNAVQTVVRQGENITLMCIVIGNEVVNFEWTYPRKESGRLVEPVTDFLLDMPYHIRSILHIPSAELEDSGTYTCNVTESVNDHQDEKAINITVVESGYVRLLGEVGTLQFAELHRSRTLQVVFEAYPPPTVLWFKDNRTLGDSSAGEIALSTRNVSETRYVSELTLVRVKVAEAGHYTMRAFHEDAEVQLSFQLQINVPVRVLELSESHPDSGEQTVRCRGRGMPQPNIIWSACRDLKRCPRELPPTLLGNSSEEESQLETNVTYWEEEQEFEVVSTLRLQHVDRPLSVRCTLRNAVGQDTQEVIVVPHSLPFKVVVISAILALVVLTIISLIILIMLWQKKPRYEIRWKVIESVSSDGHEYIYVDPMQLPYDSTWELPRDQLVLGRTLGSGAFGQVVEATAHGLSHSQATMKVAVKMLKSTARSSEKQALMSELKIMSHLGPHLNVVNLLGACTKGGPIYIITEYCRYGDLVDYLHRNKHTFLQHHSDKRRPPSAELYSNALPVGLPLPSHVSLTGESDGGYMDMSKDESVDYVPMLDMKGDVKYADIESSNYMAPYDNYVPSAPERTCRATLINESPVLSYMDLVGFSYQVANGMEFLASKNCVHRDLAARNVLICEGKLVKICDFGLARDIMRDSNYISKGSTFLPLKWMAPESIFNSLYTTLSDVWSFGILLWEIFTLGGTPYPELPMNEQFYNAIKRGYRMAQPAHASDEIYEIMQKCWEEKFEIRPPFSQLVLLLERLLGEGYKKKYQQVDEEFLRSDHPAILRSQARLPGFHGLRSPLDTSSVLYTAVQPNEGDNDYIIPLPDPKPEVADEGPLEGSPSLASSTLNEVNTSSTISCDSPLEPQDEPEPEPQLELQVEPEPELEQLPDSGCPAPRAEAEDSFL

Each structure is given as a SMILES string.

Turning to `CCc1cccc(NC(=O)c2cccc(N3CCc4c(cnc5ccsc45)C3)c2)c1` [Example 14, 3-(8,9-dihydrothieno[3,2-c]-2,7-naphthyridin-7(6H)-yl)-N-(3-ethylphenyl)benzamide], the 50% inhibitory concentration (IC50) against PDGFRβ [1] amounted to 7 nM; against VEGFR2 [2] it was 5 nM; on VEGFR2 [3], 12 nM.

Take `Cc1cccc(NC(=O)c2cccc(N3CCc4c(cnc5ccccc45)C3)c2)c1` [Example 3, 3-(1,4-dihydrobenzo[c]-2,7-naphthyridin-3(2H)-yl)-N-(3-methylphenyl)benzamide]: the IC50 turned out to be 16 nM on PDGFRβ [1], 7 nM on VEGFR2 [2] and 23 nM on VEGFR2 [3].

`CCc1cccc(NC(=O)c2cccc(N3CCc4c(cnc5ccccc45)C3)c2)c1` [Example 4, 3-(1,4-dihydrobenzo[c]-2,7-naphthyridin-3(2H)-yl)-N-(3-ethylphenyl)benzamide]: the IC50 was found to be 10 nM on PDGFRβ [1], 58 nM on PDGFRβ [4], 6 nM against VEGFR2 [2] and 19 nM against VEGFR2 [3].

With `CC(C)c1cccc(NC(=O)c2cccc(N3CCc4c(cnc5ccccc45)C3)c2)c1` [Example 5, 3-(1,4-dihydrobenzo[c]-2,7-naphthyridin-3(2H)-yl)-N-(3-isopropylphenyl)benzamide], the IC50 against PDGFRβ [1] came out at 15 nM; against PDGFRβ [4], 200 nM; against VEGFR2 [2], 7 nM; on VEGFR2 [3], 30 nM.

As to `COc1cc2ncc3c(c2cc1OC)CCN(c1cccc(C(=O)Nc2ccc(C(C)C)cc2)c1)C3` [Example 11, 3-(8,9-dimethoxy-1,4-dihydrobenzo[c]-2,7-naphthyridin-3(2H)-yl)-N-(4-isopropylphenyl)benzamide], the figures for the half-maximal inhibitory concentration (IC50) against PDGFRβ [1], against VEGFR2 [2] and on VEGFR2 [3] were 18 nM, 9 nM and 20 nM, respectively.

Take `COc1cc2ncc3c(c2cc1OC)CCN(c1cccc(C(=O)Nc2cccc(C(C)C)c2)c1)C3` [Example 10, 3-(8,9-dimethoxy-1,4-dihydrobenzo[c]-2,7-naphthyridin-3(2H)-yl)-N-(3-isopropylphenyl)benzamide]: the concentration for half-maximal inhibition (IC50) came to 11 nM on PDGFRβ [1] and 7 nM against VEGFR2 [2].

Take `O=C(Nc1cccc(C(F)(F)F)c1)c1cccc(N2CCc3c(cnc4ccccc34)C2)c1` [Example 7, 3-(1,4-dihydrobenzo[c]-2,7-naphthyridin-3(2H)-yl)-N-[3-(trifluoromethyl)phenyl]benzamide]: the concentration for half-maximal inhibition (IC50) against PDGFRβ [1] turned out to be 14 nM; on PDGFRβ [4], 103 nM; on VEGFR2 [2], 10 nM; on VEGFR2 [3], 46 nM.

For the compound `CC(C)c1ccc(NC(=O)c2cccc(N3CCc4c(cnc5ccccc45)C3)c2)cc1` [Example 6, 3-(1,4-dihydrobenzo[c]-2,7-naphthyridin-3(2H)-yl)-N-(4-isopropylphenyl)benzamide], the results for the IC50 on PDGFRβ [1], against VEGFR2 [2] and at VEGFR2 [3] were 16 nM, 8 nM and 71 nM, respectively.
